The source of these data is patent US9645154B2, “Method for detecting cancer cell” (ARKRAY, Inc., priority 2010, dated 2017).

Each structure is given as a SMILES string.

Test [1] relates to human fibrosarcoma cell line HT1080. Description: Labeled sugar incorporation, fluorescence microscopy image analysis (positive rate). The format is cell-based. The following applies: 10 mM, 5 min, 23° C. The source says:
In accordance with the conventional method, cultured human fibrosarcoma cell line HT1080 (DS Pharma Biomedical Co., Ltd.) was harvested with trypsin (Invitrogen). The human gastric cancer cell line SNU-1 (ATCC), which is a suspension cell line, was directly harvested without any trypsin treatment. The cell suspension of the harvested cancer cells was centrifuged, and the supernatant was removed. The cells were resuspended with Dulbecco's PBS (−) (Nissui Pharmaceutical Co., Ltd.) and centrifuged, and the supernatant was removed again.
(§1) When performing the hemolyzing treatment, the blood cell fraction collected as described above was hemolyzed using ammonium chloride (STEMCELL Technologies) according to the manufacture's manuals.
(§2) The number of the cells was counted for each cell line using a hemacytometer in accordance with the conventional method, and then 10^5 to 10^6 cells per sample (cell suspension) was aliquoted. Each of the sample was centrifuged to remove the supernatant. Subsequently, 2-NBDG (Wako Pure Chemical Industries, Ltd.; at the final concentration given in Table 3 or 4) dissolved in Dulbecco's PBS (−) was added thereto, and the cells were suspended well. After the reaction, Dulbecco's PBS (−) was added to the mixture, and the resultant was centrifuged to remove the supernatant. The cells were resuspended with Dulbecco's PBS (−) and centrifuged, and the supernatant was removed again. The steps of resuspending cells with Dulbecco's PBS (−), centrifuging and removing the supernatant were then repeated 2 to 3 times, thereby washing the cells thoroughly. The cells were resuspended with Dulbecco's PBS (−), the concentration thereof was adjusted, and then added dropwise to a 384-well plate. The plate was centrifuged to spin down the cells. The image was captured with a fluorescence microscope (Nikon Corp.) using B-2A filter combination (Nikon Corp.). The B-2A set covers the following wavelengths. EX (excitation wavelength): 475±15 nm, DM: 505 nm or longer, BA (fluorescence wavelength) 520 nm or longer.
(§3) The acquired images were analyzed using an image analysis software NIS-ELEMENTS (trade name, Nikon Corp.) to evaluate the fluorescence intensity of the cell. […]
In a manner similar to Example 2, each of human breast adenocarcinoma cells (cell line name: MCF-7; DS Pharma Biomedical Co., Ltd.), human colon adenocarcinoma cells (cell line name: SW620; DS Pharma Biomedical Co., Ltd.), human prostate cancer cells (cell line name: PC3; DS Pharma Biomedical Co., Ltd.), human alveolar epithelial cancer cells (cell line name: NCI-H358; DS Pharma Biomedical Co., Ltd.), human gastric cancer cells (cell line name: SNU-1; ATCC) and human fibrosarcoma cells (cell line name: HT1080; DS Pharma Biomedical Co., Ltd.) was detected with the labeled sugar (2-NBDG).

In test [2] the test system is Blood cells. The experiment in a line: Labeled sugar incorporation, fluorescence microscopy image analysis (false-positive/negative rate). The settings on record: 10 mM, 5 min, 23° C. The test is classed as cell-based, human.
Text: (§4) Blood was collected from a human subject using a vacuum blood collection tube (with EDTA•2K). Blood cells were separated using HetaSep (STEMCELL Technologies) in accordance with manufacturer's instructions.
as §1, §2, §3

Test [3] relates to Blood cells. Description: Labeled amino acid incorporation, fluorescence microscopy image analysis (false-positive/negative rate). The test is classed as cell-based, human. The settings on record: hemolyzed, 30 min, 37° C.; for Negative rate (Blood cells) / Positive rate (Blood cells): 1 mM.
Text: as §4
When performing the hemolyzing treatment, the blood cell fraction collected as described above was hemolyzed using ammonium chloride (STEMCELL Technologies) at room temperature according to the manufacture's manuals.
The number of the cells was counted for each cell line using a hemacytometer in accordance with the conventional method, and then 10^5 to 10^6 cells per sample (cell suspension) was aliquoted. The sample was centrifuged to remove the supernatant. Subsequently, H-Ala(2-Bacd)-OH (Watanabe Chemical Industries, Ltd.) was added thereto (at the final concentration given in Table 5 or 6), and the cells were suspended well. After the reaction, Dulbecco's PBS (−) was added to the mixture, and the resultant was centrifuged to remove the supernatant. The cells were resuspended with Dulbecco's PBS and centrifuged, and the supernatant was removed again. The steps of resuspending cells with Dulbecco's PBS (−), centrifuging and removing the supernatant were then repeated 2 to 3 times, thereby washing the cells thoroughly. The cells were resuspended with Dulbecco's PBS (−), the concentration thereof was adjusted, and then added dropwise to a 384-well plate. The plate was centrifuged to spin down the cells. The image was captured with a fluorescence microscope (Nikon Corp.) using B-2A filter set (Nikon Corp.). The B-2A set covers the same wavelengths as those in Example 2. The acquired images were analyzed using an image analysis software NIS-ELEMENTS (trade name, Nikon Corp.) to evaluate the fluorescence intensity of the cell.
With regard to the labeling substance, H-Lys(DMACA)-OH (Watanabe Chemical Industries, Ltd.) or H-Glu(EDANS)—OH (Watanabe Chemical Industries, Ltd.) was used instead of using H-Ala(2-Bacd)-OH in the staining of Example 3.
(§5) Further, the fluorescence intensity of the cells was evaluated in a manner similar to Example 2, except the fluorescence filter covering the wavelengths of EX (excitation wavelength) of 365/±10, DM of 400 or longer and BA (fluorescence wavelength) of 470±20 was used based on the fluorescent property of the fluorescent substances.

Test [4] deals with human gastric cancer cell line SNU-1. The experiment in a line: Labeled amino acid incorporation, fluorescence microscopy image analysis (positive rate). The format is cell-based. The following applies: 1 mM; hemolyzed, 30 min, 37° C.
Text: In accordance with the conventional method, cultured human prostate cancer cell line PC3 (DS Pharma Biomedical Co., Ltd.) was harvested with trypsin (Invitrogen). The human gastric cancer cell line SNU-1 (ATCC), which is a suspension cell line, was directly harvested without any trypsin treatment. The cell suspension of the harvested cancer cells was centrifuged, and the supernatant was removed. The cells were resuspended with Dulbecco's PBS (−) (Nissui Pharmaceutical Co., Ltd.) and centrifuged, and the supernatant was removed again.
The number of the cells was counted for each cell line using a hemacytometer in accordance with the conventional method, and then 10^5 to 10^6 cells per sample (cell suspension) was aliquoted. The sample was centrifuged to remove the supernatant. […] The image was captured with a fluorescence microscope (Nikon Corp.) using B-2A filter set (Nikon Corp.). […] The acquired images were analyzed using an image analysis software NIS-ELEMENTS (trade name, Nikon Corp.) to evaluate the fluorescence intensity of the cell. […]
as §5

On to `O=[N+]([O-])c1ccc(NCC2OC(O)C(O)C(O)[C@@H]2O)c2nonc12` (stereo partly drawn) [6-NBDG, 6-[N-(7-nitrobenz-2-oxa-1,3-diazol-4-yl)amino]-6-deoxy-D-glucose], for which the “Positive rate (Fibrosarcoma cell line)” value is given as 78.7% in test [1] (hemolyzed) and 71.1% in test [1] (not hemolyzed). For the same compound, the “Negative rate (Blood cells (fresh blood))” value with Blood cells [2] (hemolyzed) and in the test with Blood cells [2] (not hemolyzed) was 99.1% in each case. The “Positive rate (Blood cells (fresh blood))” value with Blood cells [2] (hemolyzed) and in the test on Blood cells [2] (not hemolyzed) was 0.9% each time.
Take `N[C@@H](CCC(=O)NCCNc1cccc2c(S(=O)(=O)O)cccc12)C(=O)O` [H-Glu(EDANS)-OH]: in the test on Blood cells [3], the “Negative rate (Blood cells)” value was found to be 99.4% and the “Positive rate (Blood cells)” value is reported as 0.6%. In addition, the “selectivity for a cancer cell in view of a negative rate” value with Blood cells [3] (gastric cancer cell line versus blood cells, Table 15) is reported as “high selectivity”. Besides, the “Positive rate (Gastric cancer cell line)” value in test [4] came out at 56.9%.
Regarding `CN(C)c1ccc2c(CC(=O)NCCCC[C@H](N)C(=O)O)cc(=O)oc2c1` [H-Lys(DMACA)-OH], in the test with Blood cells [3], the “Negative rate (Blood cells)” value is 82.3% and the “Positive rate (Blood cells)” value worked out at 17.7%. In test [4], the “Positive rate (Gastric cancer cell line)” value turned out to be 86.1%.
